Legend:
[1] = system: Wap-ras tumors; assay: In vivo therapy in the WAP-RAS transgenic model; details: Wap-ras transgenic mice with well developed tumors; peptoid 20 mpk po, paclitaxel 5 mpk ip
Description: Peptoid and Paclitaxel combination efficacy is also evaluated in the Wap-ras transgenic model.
Peptoid (20 mpk/dosing po) was dissolved in 20% hydroxyl-propyl-betacyclodexatrin (Vehicle I). 0.2 ml of peptoid solution is the oral dosing volume. Paclitaxel (5 mpk/dosing ip) was dissolved in a diluted ethanol/cremophor EL solution (vehicle II) and the i.p. dosing volume for paclitaxel was 0.1 ml.
The mice are weighed, randomized, and ear-marked on Day 0. Peptoid treatment and Vehicle I treatment began on Day 1 and continued every 12 hours until Day 21. Paclitaxel and Vehicle II treatments are started on Day 4 and continued daily on Day 5, 6, and 7.

[2] = target: T1, second BIR (baculoviral IAP repeat) motif of XIAP (Homo sapiens, UniProt P98170); assay: In vitro IAP (BIR) binding/interaction assay, GST-mediated pull-down
T1 construct: recombinant IAP fragment (second BIR (baculoviral IAP repeat) motif of XIAP)
Description: Interaction between AV peptoids and IAPs was examined by GST-mediated pull-down assays. Approximately 0.4 mg of a recombinant IAP fragment (second BIR (baculoviral IAP repeat) motif of XIAP) was bound to […] of glutathione resin as a GST-fusion protein and incubated with 0.5 mg of radiolabeled AV peptoids at room temperature. After extensive washing with an assay buffer containing 25 mM Tris, pH 8.0, 150 mM NaCl, and 2 mM dithiothreitol (DTT), the complex was eluted with 5 mM reduced glutathione and visualized by SDS-PAGE with Coomassie staining.
Smac stimulates activation of procaspase-3 by relieving the IAP inhibition^20, 21. All members of the IAP family contain at least one BIR (baculoviral IAP repeat) motif and many contain three^9.

[3] = system: procaspase-3; assay: Hela cell extracts: radiolabeled procaspase-3 activation assay; type: biochemical; details: S-100 extracts of HeLa cells, 35S-labeled caspase-3; AV peptoids (50 nM), Smac peptides 30–1000 mM; 30° C., 1 hr
Description: […] S-100 extracts of HeLa cells were incubated alone (Control), or with AV peptoids (50 nM) nM, or with […] of N-terminal Smac peptides in different lengths. The reactions were carried out with the addition of 1 mM DATP, 1 mM additional MgCl2, 0.2 mg/ml horse heart cytochrome c, and […] of in vitro translated, ^35S-labeled caspase-3 in a final volume of […]. The reaction mixtures were incubated at 30° C. for 1 hr followed by electrophoresis on a 15% PAGE gel. The gel was subsequently transferred onto a nitrocellulose filter and exposed to a phosphoimaging cassette.

T1 sequence (P98170 124-240 limits assumed): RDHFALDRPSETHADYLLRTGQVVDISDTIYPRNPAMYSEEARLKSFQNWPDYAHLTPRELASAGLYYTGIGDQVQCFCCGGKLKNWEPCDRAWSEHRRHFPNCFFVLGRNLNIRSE

CC(=O)O[C@H]1C(=O)[C@@]2(C)[C@H]([C@H](OC(=O)c3ccccc3)[C@]3(O)C[C@H](OC(=O)[C@H](O)[C@@H](NC(=O)c4ccccc4)c4ccccc4)C(C)=C1C3(C)C)[C@]1(OC(C)=O)CO[C@@H]1C[C@@H]2O [Paclitaxel]
tumor response to treatment, single agent [1]: do not respond

NH2-KQAIPVA-COOH (H-KQAIPVA-OH) [Smac-7R]
IAP Binding ([2]; Table 4, GST pull-down with radiolabeled AV peptoid, grades 0, ++, +++, key not given): 0 | activation of procaspase-3 [3]: did not

B1: Smac: Second mitochondria-derived activator of caspases (DIABLO); mature form contains 184 amino acids (protein, UniProt Q9NR28 22-239, looked up)
Diablo IAP-binding …: LCVPVVANFKKRCFSELIRPWHKTVTIGFGVTLCAVPIAQKSEPHSLSSEALMRRAVSLVTDSTSTFLSQTTYALIEAITEYTKAVYTLTSLYRQYTSLLGKMNSEEEDEVWQVIIGARAEMTSKHQEYLKLETTWMTAVGLSEMAAEAAYQTGADQASITARNHIQLVKLQVEEVHQLSRKAETKLAEAQIEELRQKTQEEGEERAESEQEAYLRED
specific binding/interaction with IAP (BIR domain of XIAP) ([2]; second or third BIR domain of XIAP): specifically interact

Source: US7094758B2, “Apoptotic compounds” (Board of Regents, The University of Texas System, priority 2000, dated 2006)
